# Reference: ChEMBL document CHEMBL4376834, “Discovery of 4H-Chromen-4-one Derivatives as a New Class of Selective Rho Kinase (ROCK) Inhibitors, which Showed Potent Activity in ex Vivo Diabetic Retinopathy Models” (J Med Chem, 2019)
# Legend:
# [1] = target: Serine/threonine-protein kinase NIM1 (Homo sapiens, UniProt Q8IY84); assay: Inhibition of recombinant full length human NIM1 using KKKVSRSGLYRSP as substrate measured after 40 mins in presence of [gamma33P]ATP by radiometric scintillation counting analysis
# [2] = target: Mitogen-activated protein kinase 14 (Homo sapiens, UniProt Q16539, T106M); assay: Inhibition of recombinant human full length SAPK2a T106M mutant using myelin basic protein as substrate incubated for 40 mins in presence of [gamma33P]ATP by radiometric scintillation counting analysis
# Mitogen-activated protein kinase 14, sequence (Q16539 2-360 T106M limits assumed): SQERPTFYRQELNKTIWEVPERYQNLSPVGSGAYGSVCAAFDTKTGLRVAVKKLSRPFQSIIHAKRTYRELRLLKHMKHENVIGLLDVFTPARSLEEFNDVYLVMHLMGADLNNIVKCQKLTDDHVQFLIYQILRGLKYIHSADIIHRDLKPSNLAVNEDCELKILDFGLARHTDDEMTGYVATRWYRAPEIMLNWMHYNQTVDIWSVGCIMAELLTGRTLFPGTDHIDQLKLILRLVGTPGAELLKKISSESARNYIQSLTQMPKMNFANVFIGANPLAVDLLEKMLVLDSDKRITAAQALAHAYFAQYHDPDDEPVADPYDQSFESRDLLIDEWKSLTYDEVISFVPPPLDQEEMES
# [3] = target: Cyclin-dependent kinase 1/cyclin B1 (Homo sapiens, UniProt P06493); assay: Inhibition of recombinant full length human CDK1/CyclinB using Histone H1 as substrate incubated for 40 mins in presence of [gamma-33ATP] by radiometric scintillation counting analysis; type: protein-complex assay
# [4] = target: Homeodomain-interacting protein kinase 1 (Homo sapiens, UniProt Q86Z02); assay: Inhibition of human recombinant HIPK1 (158 to 555 residues) using myelin basic protein as substrate after 40 mins by [gamma-33ATP] radiometric assay
# [5] = target: Cyclin-dependent kinase 5/CDK5 activator 1 (Homo sapiens, UniProt Q00535); assay: Inhibition of recombinant full length human CDK5/p35 using histone H1 as substrate incubated for 40 mins in presence of [gamma-33ATP] by radiometric scintillation counting analysis; type: protein-complex assay
# [6] = target: Serine/threonine-protein kinase 17A (Homo sapiens, UniProt Q9UEE5); assay: Inhibition of recombinant full length human DRAK1 using KKLNRTLSFAEPG as substrate after 40 mins in presence of [gamma-33ATP] by radiometric scintillation counting analysis
# [7] = target: Insulin-like growth factor 1 receptor (Homo sapiens, UniProt P08069); assay: Inhibition of human recombinant IGF1R (959 to end residues) using KKKSPGEYVNIEF as substrate after 40 mins by [gamma-33ATP] by radiometric scintillation counting analysis
# [8] = target: Dual specificity tyrosine-phosphorylation-regulated kinase 1B (Homo sapiens, UniProt Q9Y463); assay: Inhibition of recombinant full length human DYRK1B using RRRFRPASPLRGPP as substrate after 40 mins in presence of [gamma-33ATP] by radiometric scintillation counting analysis
# [9] = target: LIM domain kinase 2 (Homo sapiens, UniProt P53671); assay: Inhibition of human LIMK2 in presence of 10 uM of ATP by radiometric analysis
# LIM domain kinase 2, sequence (P53671 whole entry, the tested form may be a part): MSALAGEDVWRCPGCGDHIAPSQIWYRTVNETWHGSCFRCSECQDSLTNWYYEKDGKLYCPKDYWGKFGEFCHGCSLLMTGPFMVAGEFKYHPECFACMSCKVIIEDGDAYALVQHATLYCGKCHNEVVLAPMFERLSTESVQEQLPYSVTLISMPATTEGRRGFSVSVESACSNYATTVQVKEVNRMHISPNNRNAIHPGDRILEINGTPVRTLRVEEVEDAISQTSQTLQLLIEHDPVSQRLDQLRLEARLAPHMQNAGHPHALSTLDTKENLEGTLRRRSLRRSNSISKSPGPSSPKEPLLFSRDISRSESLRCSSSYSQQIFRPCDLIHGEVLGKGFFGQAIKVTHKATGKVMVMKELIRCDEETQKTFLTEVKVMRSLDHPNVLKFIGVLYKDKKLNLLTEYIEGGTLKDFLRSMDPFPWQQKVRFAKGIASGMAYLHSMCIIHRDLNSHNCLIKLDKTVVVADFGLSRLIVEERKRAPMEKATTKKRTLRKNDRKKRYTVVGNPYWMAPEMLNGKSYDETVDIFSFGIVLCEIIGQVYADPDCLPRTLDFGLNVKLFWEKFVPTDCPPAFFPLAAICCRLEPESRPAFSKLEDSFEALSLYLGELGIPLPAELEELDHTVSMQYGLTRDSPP
# [10] = target: Ephrin type-A receptor 3 (Homo sapiens, UniProt P29320); assay: Inhibition of recombinant human EphA3 (578 to end residues) using poly(Glu, Tyr) 4:1 as substrate measured after 40 mins in presence of [gamma33ATP] by radiometric scintillation counting analysis
# Ephrin type-A receptor 3, sequence (P29320 whole entry): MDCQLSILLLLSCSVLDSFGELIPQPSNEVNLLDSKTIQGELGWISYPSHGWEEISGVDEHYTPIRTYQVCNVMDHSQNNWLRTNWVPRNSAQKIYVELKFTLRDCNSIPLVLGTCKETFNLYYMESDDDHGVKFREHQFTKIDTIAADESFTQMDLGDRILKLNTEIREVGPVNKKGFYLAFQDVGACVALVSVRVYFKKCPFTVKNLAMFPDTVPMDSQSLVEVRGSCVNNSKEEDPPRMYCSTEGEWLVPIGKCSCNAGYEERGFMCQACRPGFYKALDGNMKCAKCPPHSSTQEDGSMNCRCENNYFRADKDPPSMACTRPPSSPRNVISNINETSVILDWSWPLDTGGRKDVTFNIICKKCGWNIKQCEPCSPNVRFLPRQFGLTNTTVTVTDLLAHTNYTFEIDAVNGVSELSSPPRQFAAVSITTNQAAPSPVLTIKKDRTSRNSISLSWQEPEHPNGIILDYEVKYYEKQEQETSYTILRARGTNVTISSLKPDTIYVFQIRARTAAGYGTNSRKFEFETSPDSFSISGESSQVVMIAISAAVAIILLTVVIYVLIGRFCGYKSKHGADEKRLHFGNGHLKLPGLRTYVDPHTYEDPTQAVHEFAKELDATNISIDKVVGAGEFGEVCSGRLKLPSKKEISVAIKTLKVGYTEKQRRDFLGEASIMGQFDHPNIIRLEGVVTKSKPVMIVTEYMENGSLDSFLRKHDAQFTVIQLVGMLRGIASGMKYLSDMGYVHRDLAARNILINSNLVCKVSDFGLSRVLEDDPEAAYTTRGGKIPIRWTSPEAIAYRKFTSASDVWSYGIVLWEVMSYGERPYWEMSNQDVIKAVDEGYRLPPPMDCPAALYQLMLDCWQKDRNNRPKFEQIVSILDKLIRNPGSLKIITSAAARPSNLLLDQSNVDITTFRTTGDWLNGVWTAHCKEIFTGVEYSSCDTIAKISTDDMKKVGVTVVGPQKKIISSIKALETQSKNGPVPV
# [11] = target: Mitogen-activated protein kinase 1 (Homo sapiens, UniProt P28482); assay: Inhibition of recombinant full length human MAPK1 using myelin basic protein as substrate incubated for 40 mins in presence of [gamma-33ATP by radiometric scintillation counting analysis
# Mitogen-activated protein kinase 1, sequence (P28482 whole entry): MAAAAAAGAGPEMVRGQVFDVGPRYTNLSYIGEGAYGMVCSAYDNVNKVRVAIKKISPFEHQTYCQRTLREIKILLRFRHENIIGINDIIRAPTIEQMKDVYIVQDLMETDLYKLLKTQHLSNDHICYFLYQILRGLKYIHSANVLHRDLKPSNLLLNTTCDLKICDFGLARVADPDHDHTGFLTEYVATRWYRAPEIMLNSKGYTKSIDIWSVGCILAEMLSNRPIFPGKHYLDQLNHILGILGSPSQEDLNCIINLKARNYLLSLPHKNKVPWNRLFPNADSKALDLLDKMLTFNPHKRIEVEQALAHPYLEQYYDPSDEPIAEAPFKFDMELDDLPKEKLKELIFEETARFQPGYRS
# [12] = target: Mitogen-activated protein kinase 10 (Homo sapiens, UniProt P53779); assay: Inhibition of recombinant full length human JNK3 using peptide substrate after 40 mins by [gamma-33ATP] by radiometric scintillation counting analysis
# Mitogen-activated protein kinase 10, sequence (P53779 whole entry): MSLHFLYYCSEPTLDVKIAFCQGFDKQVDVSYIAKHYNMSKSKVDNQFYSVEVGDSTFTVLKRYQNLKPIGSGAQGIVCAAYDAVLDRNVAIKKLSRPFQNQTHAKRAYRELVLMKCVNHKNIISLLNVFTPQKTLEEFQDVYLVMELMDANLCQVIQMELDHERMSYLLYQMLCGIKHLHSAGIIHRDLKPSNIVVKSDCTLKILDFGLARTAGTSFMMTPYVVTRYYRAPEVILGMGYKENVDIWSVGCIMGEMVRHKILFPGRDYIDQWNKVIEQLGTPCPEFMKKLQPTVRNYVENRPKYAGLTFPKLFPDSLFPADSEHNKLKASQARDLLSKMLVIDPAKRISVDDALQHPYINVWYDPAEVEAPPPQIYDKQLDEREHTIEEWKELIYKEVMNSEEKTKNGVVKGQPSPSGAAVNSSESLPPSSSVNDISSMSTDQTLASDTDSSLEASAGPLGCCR
# [13] = target: Platelet-derived growth factor receptor alpha (Homo sapiens, UniProt P16234, V561D); assay: Inhibition of human PDGFRalpha V561D mutant (550 to end residues) using GGMEDIYFEFMGG as substrate measured after 40 mins in presence of [gamma33P]ATP by radiometric scintillation counting analysis
# [14] = Intrinsic clearance in rat liver microsomes measured upto 45 mins in presence of NADPH by LC-MS analysis; type: ADME, Microsome; conditions: read-out: CLH
# [15] = target: Serine/threonine-protein kinase 17B (Homo sapiens, UniProt O94768); assay: Inhibition of recombinant full length human DRAK2 using KKRPQRRYSNVF as substrate at 120 mins in presence of [gamma-33ATP] by radiometric scintillation counting analysis
# Serine/threonine-protein kinase 17B, sequence (O94768 whole entry, the tested form may be a part): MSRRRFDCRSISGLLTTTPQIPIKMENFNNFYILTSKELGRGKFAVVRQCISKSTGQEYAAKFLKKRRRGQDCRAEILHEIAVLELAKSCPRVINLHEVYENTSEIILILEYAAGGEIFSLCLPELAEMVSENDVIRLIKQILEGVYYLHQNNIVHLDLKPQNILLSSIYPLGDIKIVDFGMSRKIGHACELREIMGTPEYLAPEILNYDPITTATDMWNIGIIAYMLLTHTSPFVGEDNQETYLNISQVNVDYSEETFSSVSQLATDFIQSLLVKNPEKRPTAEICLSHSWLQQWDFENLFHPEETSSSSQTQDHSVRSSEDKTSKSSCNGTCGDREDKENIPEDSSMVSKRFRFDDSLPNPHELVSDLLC
# [16] = target: Mitogen-activated protein kinase kinase kinase 9 (Homo sapiens, UniProt P80192); assay: Inhibition of recombinant human MLK1 (134 to 414 residues) using casein as substrate incubated for 40 mins in presence of [gamma-33ATP by radiometric scintillation counting analysis
# [17] = target: Serine/threonine-protein kinase A-Raf (Homo sapiens, UniProt P10398); assay: Inhibition of human recombinant A-Raf (273 to end residues) using myelin as substrate incubated for 40 mins in presence of [gamma-33ATP] by radiometric scintillation counting analysis
# [18] = target: STE20-like serine/threonine-protein kinase (Homo sapiens, UniProt Q9H2G2); assay: Inhibition of recombinant human SLK (1 to 373 residues) using RLGRDKYKTLRQI as substrate incubated for 40 mins in presence of [gamma33P]ATP by radiometric scintillation counting analysis
# STE20-like serine/threonine-protein kinase, sequence (Q9H2G2 whole entry, the tested form may be a part): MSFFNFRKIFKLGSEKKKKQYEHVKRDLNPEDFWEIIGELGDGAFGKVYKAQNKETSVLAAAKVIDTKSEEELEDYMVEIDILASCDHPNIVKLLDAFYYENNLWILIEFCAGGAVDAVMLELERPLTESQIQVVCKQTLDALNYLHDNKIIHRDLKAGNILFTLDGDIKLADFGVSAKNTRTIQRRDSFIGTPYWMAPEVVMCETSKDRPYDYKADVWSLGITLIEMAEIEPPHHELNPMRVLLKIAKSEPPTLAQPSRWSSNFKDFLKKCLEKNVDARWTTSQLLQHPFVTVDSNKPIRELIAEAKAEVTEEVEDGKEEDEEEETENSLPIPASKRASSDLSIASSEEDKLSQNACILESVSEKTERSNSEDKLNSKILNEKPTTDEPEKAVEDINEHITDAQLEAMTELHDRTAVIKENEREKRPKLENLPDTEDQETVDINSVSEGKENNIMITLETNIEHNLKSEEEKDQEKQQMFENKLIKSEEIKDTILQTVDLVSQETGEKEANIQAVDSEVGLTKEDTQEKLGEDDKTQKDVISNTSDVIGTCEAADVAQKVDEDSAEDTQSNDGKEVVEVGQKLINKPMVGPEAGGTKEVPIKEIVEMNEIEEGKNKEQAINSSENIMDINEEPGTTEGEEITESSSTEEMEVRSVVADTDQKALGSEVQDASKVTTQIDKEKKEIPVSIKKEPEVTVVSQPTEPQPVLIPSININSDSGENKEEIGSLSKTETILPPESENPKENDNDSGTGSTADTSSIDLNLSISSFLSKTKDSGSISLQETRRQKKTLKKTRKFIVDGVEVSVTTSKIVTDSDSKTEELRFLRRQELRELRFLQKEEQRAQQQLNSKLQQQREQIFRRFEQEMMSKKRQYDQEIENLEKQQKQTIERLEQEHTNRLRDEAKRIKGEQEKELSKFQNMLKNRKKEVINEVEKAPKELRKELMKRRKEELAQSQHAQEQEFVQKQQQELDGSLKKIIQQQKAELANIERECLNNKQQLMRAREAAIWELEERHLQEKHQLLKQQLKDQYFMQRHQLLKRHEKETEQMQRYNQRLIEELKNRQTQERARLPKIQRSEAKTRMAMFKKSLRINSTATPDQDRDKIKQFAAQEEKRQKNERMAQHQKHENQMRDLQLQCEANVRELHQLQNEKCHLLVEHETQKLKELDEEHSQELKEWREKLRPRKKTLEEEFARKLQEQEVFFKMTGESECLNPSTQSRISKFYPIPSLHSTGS
# [19] = target: DNA-dependent protein kinase catalytic subunit (Homo sapiens, UniProt P78527); assay: Inhibition of recombinant full length human DNA-PK using GST-cMyc-p53 as substrate incubated for 40 mins by fluorescence assay
# [20] = target: Receptor tyrosine-protein kinase erbB-4 (Homo sapiens, UniProt Q15303); assay: Inhibition of recombinant human ERBB4 (706 to 991 residues) using poly(Glu, Tyr) 4:1 as substrate after 40 mins in presence of [gamma-33ATP] by radiometric scintillation counting analysis
# [21] = target: Dual specificity protein kinase CLK2 (Homo sapiens, UniProt P49760); assay: Inhibition of recombinant human CLK2 (138 to end residues) using YRRAAVPPSPSLSR as substrate incubated 40 mins in presence of [gamma-33ATP] by radiometric scintillation counting analysis
# [22] = target: Protein-tyrosine kinase 2-beta (Homo sapiens, UniProt Q14289); assay: Inhibition of recombinant human full length PYK2 using poly(Glu, Tyr) 4:1 as substrate incubated for 40 mins in presence of [gamma33P]ATP by radiometric scintillation counting analysis
# [23] = target: Protein kinase C alpha type (Homo sapiens, UniProt P17252); assay: Inhibition of recombinant human full length PKCalpha using histone as substrate incubated for 40 mins in presence of [gamma33P]ATP by radiometric scintillation counting analysis
# [24] = target: Phosphorylase b kinase gamma catalytic chain, liver/testis isoform (Homo sapiens, UniProt P15735, F290L); assay: Inhibition of recombinant human PhKgamma2 F290L (1 to 301 residues) usingKKLNRTLSFAEPG as substrate incubated for 40 mins in presence of [gamma33P]ATP by radiometric scintillation counting analysis
# Phosphorylase b kinase gamma catalytic chain, liver/testis isoform, sequence (P15735 whole entry F290L, the tested form may be a part, canonical isoform): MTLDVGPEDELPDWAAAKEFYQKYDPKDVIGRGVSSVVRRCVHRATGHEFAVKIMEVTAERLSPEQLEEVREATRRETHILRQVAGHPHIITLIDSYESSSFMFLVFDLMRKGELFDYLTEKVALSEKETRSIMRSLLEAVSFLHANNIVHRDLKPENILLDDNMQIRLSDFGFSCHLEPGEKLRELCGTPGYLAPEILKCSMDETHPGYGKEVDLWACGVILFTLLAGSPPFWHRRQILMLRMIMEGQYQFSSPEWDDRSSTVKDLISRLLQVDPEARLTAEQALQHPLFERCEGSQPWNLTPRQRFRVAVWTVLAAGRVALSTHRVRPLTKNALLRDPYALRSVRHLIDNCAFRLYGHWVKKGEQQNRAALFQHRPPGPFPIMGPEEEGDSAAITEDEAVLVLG
# [25] = target: Serine/threonine-protein kinase pim-1 (Homo sapiens, UniProt P11309); assay: Inhibition of recombinant full length human Pim1 using KKRNRTLTV as substrate incubated for 40 mins in presence of [gamma33P]ATP by radiometric scintillation counting analysis
# [26] = Inhibition of recombinant human FLT4 V1128L/H1146R double mutant (800 to end residues) using GGEEEEYFELVKK as substrate after 40 mins in presence of [gamma-33ATP] by radiometric scintillation counting analysis
compound,measurement,setting,value
CN(C)c1ccc(C(=O)Nc2cccc(NC(=O)COc3ccc4c(=O)ccoc4c3)c2)cc1,IC50,[1],> 10 µM
same,IC50,[2],> 10 µM
same,IC50,[3],> 10 µM
same,IC50,[4],> 10 µM
same,IC50,[5],> 10 µM
same,IC50,[6],> 10 µM
same,IC50,[7],> 10 µM
same,IC50,[8],> 10 µM
same,IC50,[9],0.046 µM
same,IC50,[10],> 10 µM
same,IC50,[11],> 10 µM
same,IC50,[12],> 10 µM
same,IC50,[13],> 10 µM
same,CLint scaled,[14],2260 mL/min/kg
same,IC50,[15],> 10 µM
same,IC50,[16],> 10 µM
same,IC50,[17],> 10 µM
same,IC50,[18],> 10 µM
same,IC50,[19],> 10 µM
same,IC50,[20],> 10 µM
same,IC50,[21],> 10 µM
same,IC50,[22],> 10 µM
same,IC50,[23],> 10 µM
same,IC50,[24],> 10 µM
same,IC50,[25],> 10 µM
same,IC50,[26],> 10 µM
